Measurements published in patent US12180193B2, “Accelerating fibrosarcoma protein degrading compounds and associated methods of use” (Arvinas Operations, Inc., priority 2020, dated 2024).

Legend:
BRAF V600E = biological target: T1, BRAF V600E (Homo sapiens, UniProt P15056, V600E); assay: Cellular assay of target protein degradation, T-Rex 293 cells stably transfected with HA-BRAF_V600E (HA immunofluorescence, high content imaging); type: cell-based; conditions: T-Rex 293 HA-BRAF V600E; for DC50: half maximal degradation, read-out: BRaf V600E DC50; for Dmax: maximum degradation observed
T1 construct: expressed in transfected cells
T1 sequence (P15056 whole entry V600E): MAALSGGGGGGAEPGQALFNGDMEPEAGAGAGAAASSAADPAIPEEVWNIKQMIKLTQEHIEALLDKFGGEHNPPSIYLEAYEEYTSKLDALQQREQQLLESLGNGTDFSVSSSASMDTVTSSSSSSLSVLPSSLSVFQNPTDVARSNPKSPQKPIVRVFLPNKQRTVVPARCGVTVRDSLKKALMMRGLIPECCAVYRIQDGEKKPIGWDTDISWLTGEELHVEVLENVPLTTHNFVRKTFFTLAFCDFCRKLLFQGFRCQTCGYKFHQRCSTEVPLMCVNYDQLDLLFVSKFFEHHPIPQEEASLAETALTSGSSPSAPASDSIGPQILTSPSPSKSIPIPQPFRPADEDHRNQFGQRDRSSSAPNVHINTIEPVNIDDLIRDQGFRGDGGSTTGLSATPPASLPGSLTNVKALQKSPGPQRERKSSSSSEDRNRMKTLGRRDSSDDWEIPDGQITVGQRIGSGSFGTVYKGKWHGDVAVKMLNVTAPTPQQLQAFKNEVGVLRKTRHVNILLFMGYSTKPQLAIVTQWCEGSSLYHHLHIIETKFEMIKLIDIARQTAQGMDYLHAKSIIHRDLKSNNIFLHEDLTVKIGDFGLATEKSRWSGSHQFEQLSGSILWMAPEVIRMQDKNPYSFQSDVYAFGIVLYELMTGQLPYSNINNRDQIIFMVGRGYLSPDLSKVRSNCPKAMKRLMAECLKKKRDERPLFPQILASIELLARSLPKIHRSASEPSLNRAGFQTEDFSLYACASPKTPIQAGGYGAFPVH
Summary of the method: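 Degradation of the HA-tagged construct is measured after 24 h treatment at 37 °C across 1 μM to 0.1 nM in 0.1% DMSO, in doxycycline-induced (1 ng/mL) cells. DC50 and Dmax come from HA fluorescence imaging.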

BRAF G466V = biological target: T2, BRAF G466V (Homo sapiens, UniProt P15056, G466V); assay: Cellular assay of target protein degradation, T-Rex 293 cells stably transfected with HA-BRAF G466V (HA immunofluorescence, high content imaging); type: cell-based; conditions: T-Rex 293 HA-BRAF G466V; for DC50: half maximal degradation, read-out: BRaf G466V DC50; for Dmax: maximum degradation observed
T2 construct: expressed in transfected cells
T2 sequence (P15056 whole entry G466V): as the sequence (P15056 whole entry V600E) above, with G466V, E600V counted along it
Summary of the method: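 Dose range spans 30 nM to 3 pM (0.1% DMSO) over 24 hours at 37° C, in cells induced with 0.75 ng/mL doxycycline. Fixed cells are probed with anti-HA antibody overnight at 4° C, then imaged; half-maximal degradation and maximum degradation are derived.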

Question: Which results are given for COc1cc(CN2CCN(c3ccc(-c4cnc5[nH]cc(C(=O)c6c(F)ccc(NS(=O)(=O)N7CC[C@@H](F)C7)c6F)c5c4)cc3)CC2)cc2c1C(=O)N(C1CCC(=O)NC1=O)C2 (stereo partly drawn) [Compound 102, (3R)-N-(3-{5-[4-(4-{[2-(2,6-dioxopiperidin-3-yl)-7-methoxy-1-oxo-2,3-dihydro-1H-isoindol-5-yl]methyl}piperazin-1-yl)phenyl]-1H-pyrrolo[2,3-b]pyridine-3-carbonyl}-2,4-difluorophenyl)-3-fluoropyrrolidine-1-sulfonamide]?
Answer: DC50 (BRAF V600E): > 500 nM; Dmax (BRAF V600E): > 70%; DC50 (BRAF G466V): 1 to 10 nM; Dmax (BRAF G466V): 35 to 70%

Question: What does the source list for O=C1CCC(N2Cc3cc(C4CCN(CC5CC6(C5)CN(c5ccc(-c7cnc8[nH]cc(C(=O)c9c(F)ccc(NS(=O)(=O)N%10CC[C@@H](F)C%10)c9F)c8c7)cn5)C6)CC4)ccc3C2=O)C(=O)N1 (stereo partly drawn) [Compound 103, (3R)-N-[3-(5-{6-[6-({4-[2-(2,6-dioxopiperidin-3-yl)-1-oxo-2,3-dihydro-1H-isoindol-5-yl]piperidin-1-yl}methyl)-2-azaspiro [3.3]heptan-2-yl]pyridin-3-yl}-1H-pyrrolo[2,3-b]pyridine-3-carbonyl)-2,4-difluorophenyl]-3-fluoropyrrolidine-1-sulfonamide]?
Answer: DC50 (BRAF V600E): 5 to 50 nM; Dmax (BRAF V600E): 35 to 70%; DC50 (BRAF G466V): 1 to 10 nM; Dmax (BRAF G466V): > 70%

Question: Which DC50 (BRAF V600E) does the source give for O=C1CCC(N2Cc3cc(N4CCC(CN5CCC6(CCN(c7ccc(-c8cnc9[nH]cc(C(=O)c%10c(F)ccc(NS(=O)(=O)N%11CC[C@@H](F)C%11)c%10F)c9c8)cc7F)CC6)C5)CC4)ccc3C2=O)C(=O)N1 (stereo partly drawn) [Compound 104, (3R)-N-[3-(5-{4-[2-({1-[2-(2,6-dioxopiperidin-3-yl)-1-oxo-2,3-dihydro-1H-isoindol-5-yl]piperidin-4-yl}methyl)-2,8-diazaspiro [4.5]decan-8-yl]-3-fluorophenyl}-1H-pyrrolo [2,3-b]pyridine-3-carbonyl)-2,4-difluorophenyl]-3-fluoropyrrolidine-1-sulfonamide] here?
Answer: The DC50 was under 5 nM.

Question: And the Dmax (BRAF V600E)?
Answer: Its Dmax is under 35%.

Question: And the DC50 (BRAF G466V)?
Answer: Its DC50 is 1 to 10 nM.

Question: And the Dmax (BRAF G466V)?
Answer: The Dmax was over 70%.

Question: Which results are given for O=C1CC[C@H](N2Cc3cc([C@H](O)CCN4CC5(C4)CN(c4ccc(-c6cnc7[nH]cc(C(=O)c8c(F)ccc(NS(=O)(=O)N9CC[C@@H](F)C9)c8F)c7c6)cc4)C5)ccc3C2=O)C(=O)N1 [Compound 105, (3R)—N-[3-[5-[4-[6-[(3R)-3-[2-[(3S)-2,6-dioxo-3-piperidyl]-1-oxo-isoindolin-5-yl]-3-hydroxy-propyl]-2,6-diazaspiro[3.3]heptan-2-yl]phenyl]-1H-pyrrolo[2,3-b]pyridine-3-carbonyl]-2,4-difluoro-phenyl]-3-fluoro-pyrrolidine-1-sulfonamide]?
Answer: DC50 (BRAF V600E): 5 to 50 nM; Dmax (BRAF V600E): 35 to 70%; DC50 (BRAF G466V): 1 to 10 nM; Dmax (BRAF G466V): 35 to 70%

Question: Which results are given for O=C1CC[C@H](N2Cc3cc([C@@H](O)CCN4CC5(C4)CN(c4ccc(-c6cnc7[nH]cc(C(=O)c8c(F)ccc(NS(=O)(=O)N9CC[C@@H](F)C9)c8F)c7c6)cc4)C5)ccc3C2=O)C(=O)N1 [Compound 106, (3R)-N-{3-[5-(4-{6-[(3S)-3-{2-[(3S)-2,6-dioxopiperidin-3-yl]-1-oxo-2,3-dihydro-1H-isoindol-5-yl}-3-hydroxypropyl]-2,6-diazaspiro[3.3]heptan-2-yl}phenyl)-1H-pyrrolo[2,3-b]pyridine-3-carbonyl]-2,4-difluorophenyl}-3-fluoropyrrolidine-1-sulfonamide]?
Answer: DC50 (BRAF V600E): 5 to 50 nM; Dmax (BRAF V600E): 35 to 70%; DC50 (BRAF G466V): 1 to 10 nM; Dmax (BRAF G466V): > 70%

Question: What does the source list for O=C1CC[C@H](N2Cc3cc(C[C@@H](O)CN4CCC(c5ccc(-c6cnc7[nH]cc(C(=O)c8c(F)ccc(NS(=O)(=O)N9CC[C@@H](F)C9)c8F)c7c6)cc5)CC4)ccc3C2=O)C(=O)N1 [Compound 107]?
Answer: DC50 (BRAF V600E): 5 to 50 nM; Dmax (BRAF V600E): 35 to 70%; DC50 (BRAF G466V): 1 to 10 nM; Dmax (BRAF G466V): 35 to 70%
